Data taken from patent US8138168B1 (Takeda Pharmaceutical Company Limited, priority 2007, dated 2012).

Molecular target: T1, Recombinant human renin (Homo sapiens, UniProt P00797)
T1 construct: isolate the active form (residues 67-406); made in house; host or cells: FreeStyle 293-F cells (transient expression of pcDNA3.1(+)/hREN)
T1 sequence (P00797 67-406): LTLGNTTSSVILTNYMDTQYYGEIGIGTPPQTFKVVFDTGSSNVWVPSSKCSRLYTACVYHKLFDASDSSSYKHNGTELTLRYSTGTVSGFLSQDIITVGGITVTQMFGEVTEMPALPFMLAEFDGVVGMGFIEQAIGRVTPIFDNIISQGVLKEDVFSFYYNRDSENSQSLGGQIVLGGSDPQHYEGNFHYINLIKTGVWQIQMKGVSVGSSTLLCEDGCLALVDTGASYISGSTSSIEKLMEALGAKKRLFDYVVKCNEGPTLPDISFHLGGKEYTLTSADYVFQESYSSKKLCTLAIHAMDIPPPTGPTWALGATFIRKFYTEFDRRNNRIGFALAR
Experiment: In vitro enzymatic activity assay of renin inhibitors (fluorogenic peptide substrate)
Assay type: biochemical
Conditions: read-out: IC50 of Exemplified Compounds Against Renin
Outline: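 Enzyme: recombinant human renin, 3 nM final, 10 min compound pre-incubation at 37 °C; buffer 50 mM Hepes pH 7.4 with 0.1 mg/mL BSA or extra 2% BSA; 5% DMSO.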

| Compound | IC50 |
| --- | --- |
| Cc1ccc(NC(=O)N2CCCC(c3nc4ccccc4[nH]3)C2)cc1Cl (centres unmarked) [Compound 1, 3-(1H-Benzo[d]imidazol-2-yl)-N-(3-chloro-4-methylphenyl)piperidine-1-carboxamide] | > 1 µM |
| COCCCn1c([C@@H]2CCCN(C(=O)C[C@H](N)CNC(=O)c3ccc(OC)cc3)C2)nc2ccccc21 [Compound 280, N-((S)-2-amino-4-((R)-3-(1-(3-methoxypropyl)-1H-benzo[d]imidazol-2-yl)piperidin-1-yl)-4-oxobutyl)-4-methoxybenzamide] | 0.1 to 1 µM |
| C[C@H](N)C(=O)N1CCCC(c2nc3ccccc3[nH]2)C1 (stereo partly drawn) [Compound 53, (2S)-1-(3-(1H-benzo[d]imidazol-2-yl)piperidin-1-yl)-2-aminopropan-1-one] | > 1 µM |
| CC(=O)NCCn1c([C@@H]2CCCN(C(=O)C[C@H](N)Cc3ccc4ccccc4c3)C2)nc2ccccc21 [Compound 239, N-(2-(2-((R)-1((R)-3-amino-4-(naphthalen-2-yl)butanoyl)piperidin-3-yl)-1H-benzo[d]imidazol-1-yl)ethyl)acetamide] | 0.1 to 1 µM |
| COCCCn1c([C@@H]2CCCN(C(=O)C[C@H](N)CNC(=O)c3ccc(-c4ccsc4)cc3)C2)nc2ccccc21 [Compound 261, N-((S)-2-amino-4-((R)-3-(1-(3-methoxypropyl)-1H-benzo[d]imidazol-2-yl)piperidin-1-yl)-4-oxobutyl)-4-(thiophen-3-yl)benzamide] | < 0.1 µM |
| COCCCn1c([C@@H]2CCCN(C(=O)C[C@H](N)CNC(=O)Nc3ccc4c(c3)OCCO4)C2)nc2ccccc21 [Compound 258, 1-((S)-2-amino-4-((R)-3-(1-(3-methoxypropyl)-1H-benzo[d]imidazol-2-yl)piperidin-1-yl)-4-oxobutyl)-3-(2,3-dihydrobenzo[b][1,4]dioxin-6-yl)urea] | < 0.1 µM |
| NC1(C(=O)N2CCCC(c3nc4ccccc4[nH]3)C2)CCC1 (centres unmarked) [Compound 59, (3-(1H-benzo[d]imidazol-2-yl)piperidin-1-yl)(1-aminocyclobutyl)methanone] | > 1 µM |
| COCCCn1c([C@@H]2CCCN(C(=O)C[C@H](N)Cc3ccc4ccccc4c3)C2)nc2ccc(C#N)cc21 [Compound 109, 2-((R)-1-((R)-3-amino-4-(naphthalen-2-yl)butanoyl)piperidin-3-yl)-1-(3-methoxypropyl)-1H-benzo[d]imidazole-6-carbonitrite] | 0.1 to 1 µM |
| COCCCn1c([C@@H]2CCCN(C(=O)C[C@H](N)Cc3ccc(-c4ccc(C(N)=O)cc4)cc3)C2)nc2ccccc21 [Compound 168, 4′-((R)-2-Amino-4-((R)-3-(1-(3-methoxypropyl)-1H-benzo[d]imidazol-2-yl)piperidin-1-yl)-4-oxobutyl)biphenyl-4-carboxamide] | < 0.1 µM |
| COCCCn1c([C@@H]2CCCN(C(=O)C[C@H](N)Cc3ccc(-c4ccc(OCC5CC5)nc4)cc3)C2)nc2ccccc21 [Compound 143, (R)-3-amino-4-(4-(6-(cyclopropylmethoxy)pyridin-3-yl)phenyl)-1-((R)-3-(1-(3-methoxypropyl)-1H-benzo[d]imidazol-2-yl)piperidin-1-yl)butan-1-one] | < 0.1 µM |
| COCCCn1c([C@@H]2CCCN(C(=O)C[C@H](N)Cc3ccc(-n4c(=O)oc5ccccc54)cc3)C2)nc2ccccc21 [Compound 211] | < 0.1 µM |
| COCCCn1c([C@@H]2CCCN(C(=O)C[C@H](N)CNC(=O)Nc3ccc4c(c3)CCC4)C2)nc2ccccc21 [Compound 266, 1-((S)-2-amino-4-((R)-3-(1-(3-methoxypropyl)-1H-benzo[d]imidazol-2-yl)piperidin-1-yl)-4-oxobutyl)-3-(2,3-dihydro-1H-inden-5-yl)urea] | 0.1 to 1 µM |
| COCCCn1c([C@@H]2CCCN(C(=O)C[C@H](N)Cc3ccc(Cl)cc3)C2)nc2ccccc21 [Compound 75, (R)-3-amino-4-(4-chlorophenyl)-1((R)-3-(1-(3-methoxypropyl)-1H-benzo[d]imidazol-2-yl)piperidin-1-yl)butan-1-one] | 0.1 to 1 µM |
| COCCCn1c([C@@H]2CCCN(C(=O)C[C@H](N)Cc3ccc(-n4c(=O)[nH]c5ccccc54)cc3)C2)nc2ccccc21 [Compound 212] | < 0.1 µM |
| COCCCn1c([C@@H]2CCCN(C(=O)C[C@H](N)Cc3ccc(-n4c(=O)n(C)c5ccccc54)cc3)C2)nc2ccccc21 [Compound 220, 1-(4-((R)-2-amino-4-((R)-3-(1-(3-methoxypropyl)-1H-benzo[d]imidazol-2-yl)piperidin-1-yl)-4-oxobutyl)phenyl)-3-methyl-1H-benzo[d]imidazol-2(3H)-one] | < 0.1 µM |
| O=C(Nc1ccc2c(c1)OCO2)N1CCCC(c2nc3ccccc3[nH]2)C1 (centres unmarked) [Compound 11, N-(benzo[d][1,3]dioxol-5-yl)-3-(1H-benzo[d]imidazol-2-yl)piperidine-1-carboxamide] | > 1 µM |
| COCCCn1c([C@@H]2CCCN(C(=O)C[C@H](N)Cc3ccc(-c4ccc(C(=O)NCCOC)cc4)cc3)C2)nc2ccccc21 [Compound 177, 4′-((R)-2-amino-4-((R)-3-(1-(3-methoxypropyl)-1H-benzo[d]imidazol-2-yl)piperidin-1-yl)-4-oxobutyl)-N-(2-methoxyethyl)biphenyl-4-carboxamide] | < 0.1 µM |
| COCCCn1c([C@@H]2CCCN(C(=O)C[C@H](N)Cc3ccc(-c4ccc5nccn5c4)cc3)C2)nc2ccccc21 [Compound 139, (R)-3-amino-4-(4-(imidazo[1,2-a]pyridin-6-yl)phenyl)-1-((R)-3-(1-(3-methoxypropyl)-1H-benzo[d]imidazol-2-yl)piperidin-1-yl)butan-1-one] | < 0.1 µM |
| COCCCn1c([C@@H]2CCCN(C(=O)C[C@H](N)Cc3ccc(-c4cccnc4OC)cc3)C2)nc2ccccc21 [Compound 163, (R)-3-amino-1-((R)-3-(1-(3-methoxypropyl)-1H-benzo[d]imidazol-2-yl)piperidin-1-yl)-4-(4-(2-methoxypyridin-3-yl)phenyl)butan-1-one] | < 0.1 µM |
| COCCCn1c([C@@H]2CCCN(C(=O)C[C@H](N)CNS(=O)(=O)c3c(Cl)cccc3Cl)C2)nc2ccccc21 [Compound 290, N-((S)-2-amino-4-((R)-3-(1-(3-methoxypropyl)-1H-benzo[d]imidazol-2-yl)piperidin-1-yl)-4-oxobutyl)-2,6-dichlorobenzenesulfonamide] | 0.1 to 1 µM |

Second part, the molecule after the results:

| IC50 | Compound |
| --- | --- |
| > 1 µM | COCCCn1c([C@@H]2CCCN(C(=O)[C@@H]3CN(C(=O)C4CCCC4)C[C@H]3N)C2)nc2ccccc21 [Compound 395, ((3R,4S)-4-amino-1-(cyclopentanecarbonyl)pyrrolidin-3-yl)((R)-3-(1-(3-methoxypropyl)-1H-benzo[d]imidazol-2-yl)piperidin-1-yl)methanone] |
| 0.1 to 1 µM | COCCCn1c([C@@H]2CCCN(C(=O)C[C@H](N)CNC(=O)c3ccccc3)C2)nc2ccccc21 [Compound 317, N-((S)-2-amino-4-((R)-3-(1-(3-methoxypropyl)-1H-benzo[d]imidazol-2-yl)piperidin-1-yl)-4-oxobutyl)benzamide] |
| 0.1 to 1 µM | COCCCn1c([C@@H]2CCCN(C(=O)[C@@H]3CN(S(=O)(=O)c4cccc(Cl)c4C)C[C@H]3N)C2)nc2ccccc21 [Compound 353, ((3R,4S)-4-amino-1-(3-chloro-2-methylphenylsulfonyl)pyrrolidin-3-yl)((R)-3-(1-(3-methoxypropyl)-1H-benzo[d]imidazol-2-yl)piperidin-1-yl)methanone] |
| 0.1 to 1 µM | COCCCn1c([C@@H]2CCCN(C(=O)C[C@H](N)CNC(=O)c3cccnc3Oc3ccccc3)C2)nc2ccccc21 [Compound 299, N-((S)-2-amino-4-((R)-3-(1-(3-methoxypropyl)-1H-benzo[d]imidazol-2-yl)piperidin-1-yl)-4-oxobutyl)-2-phenoxynicotinamide] |
| 0.1 to 1 µM | CC(=O)NCCn1c([C@@H]2CCCN(C(=O)C[C@H](N)Cc3ccc(-c4ccc5c(c4)OCCN5C)cc3)C2)nc2c(C)cccc21 [Compound 475, N-(2-(2-((R)-1-((R)-3-amino-4-(4-(4-methyl-3,4-dihydro-2H-benzo[b][1,4]oxazin-7-yl)phenyl)butanoyl)piperidin-3-yl)-4-methyl-1H-benzo[d]imidazol-1-yl)ethyl)acetamide] |
| 0.1 to 1 µM | COCCCn1c([C@@H]2CCCN(C(=O)C[C@H](N)CNC(=O)c3ccc(C)c(C)c3)C2)nc2ccccc21 [Compound 293, N-((S)-2-amino-4-((R)-3-(1-(3-methoxypropyl)-1H-benzo[d]imidazol-2-yl)piperidin-1-yl)-4-oxobutyl)-3,4-dimethylbenzamide] |
| 0.1 to 1 µM | COCCCn1c([C@@H]2CCCN(C(=O)C[C@H](N)CNS(=O)(=O)c3cccc(Cl)c3)C2)nc2ccccc21 [Compound 300, N-((S)-2-amino-4-((R)-3-(1-(3-methoxypropyl)-1H-benzo[d]imidazol-2-yl)piperidin-1-yl)-4-oxobutyl)-3-chlorobenzenesulfonamide] |
| 0.1 to 1 µM | CCOC(=O)c1ccc(-c2ccc(C(=O)NC[C@@H](N)CC(=O)N3CCC[C@@H](c4nc5ccccc5n4CCCOC)C3)o2)cc1 [Compound 294, ethyl 4-(5-((S)-2-amino-4-((R)-3-(1-(3-methoxypropyl)-1H-benzo[d]imidazol-2-yl)piperidin-1-yl)-4-oxobutylcarbamoyl)furan-2-yl)benzoate] |
| 0.1 to 1 µM | COCCCn1c([C@@H]2CCCN(C(=O)[C@@H]3CN(S(=O)(=O)c4ccc(Cl)cc4Cl)C[C@H]3N)C2)nc2ccccc21 [Compound 350, ((3R,4S)-4-amino-1-(2,4-dichlorophenylsulfonyl)pyrrolidin-3-yl)((R)-3-(1-(3-methoxypropyl)-1H-benzo[d]imidazol-2-yl)piperidin-1-yl)methanone] |
